Counter-ions that a name gives are not always drawn.
System: mice
Test: Neuropharmacological Assay (SmartCube): automated behavioral signature of compound-treated mice compared with a database of reference drug classes
Type: in vivo
Details: for minimal effective dose: Mus musculus, ip, read-out: MED; for minimal effective dose / MED: minimal effective dose: dose having 45% or more total activity in SmartCube, i.p., if only one dose tested, that dose is shown; for AG / AN / AP / AX / CE / MS / AD / HL / PS / SH / UK: SmartCube class probability, 3.0 mg/kg i.p., 15 min before test
Outline: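 Dose-response work typically spanned 0.3–10 mpk, widened or narrowed to obtain a full curve, with i.p. administration 15 min pre-test. MED is defined as the dose producing ≥45% total SmartCube activity; single-dose entries list the tested dose.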

| SMILES | minimal effective dose | AG | AN | AP | AX | CE | MS | AD (hydrochloride, 3 mg/kg) | HL (hydrochloride, 3 mg/kg) | PS (hydrochloride, 3 mg/kg) | SH (hydrochloride, 3 mg/kg) | UK (hydrochloride, 3 mg/kg) | MED | HL | PS | SH | AD | UK | also measured |
| --- | --- | --- | --- | --- | --- | --- | --- | --- | --- | --- | --- | --- | --- | --- | --- | --- | --- | --- | --- |
| Cc1csc2c1CC(N)CC2 (single isomer, unassigned) [Compound 143, 3-methyl-4,5,6,7-tetrahydrobenzothiophen-5-amine hydrochloride] | 1 mg/kg | ND (^ <4%) | ND (^ <4%) | ND (^ <4%) | ND (^ <4%) | ND (^ <4%) | ND (^ <4%) | + (≥4%) | + (≥4%) | ++ (≥24%) | + (≥4%) | ND (^ <4%) | – | – | – | – | – | – | – |
| Cc1csc2c1CC(N)CC2 (single isomer, unassigned) [Compound 144, 3-methyl-4,5,6,7-tetrahydrobenzothiophen-5-amine hydrochloride] | – | ND (^ <4%) | ND (^ <4%) | ND (^ <4%) | ND (^ <4%) | ND (^ <4%) | ND (^ <4%) | ND (^ <4%) | ND (^ <4%) | ND (^ <4%) | ND (^ <4%) | ++++ (≥74%) | 1 mpk | – | – | – | – | – | – |
| CNC1CCc2cc(Cl)sc2C1 (single isomer, unassigned) [Compound 145, 2-chloro-N-methyl-4,5,6,7-tetrahydrobenzothiophen-6-amine hydrochloride] | 3 mg/kg | ND (^ <4%) | ND (^ <4%) | ND (^ <4%) | ND (^ <4%) | ND (^ <4%) | ND (^ <4%) | ++++ (≥74%) | – | – | – | ND (^ <4%) | – | ND (^ <4%) | ND (^ <4%) | ND (^ <4%) | – | – | – |
| CNC1CCc2cc(Cl)sc2C1 (single isomer, unassigned) [Compound 146, 2-chloro-N-methyl-4,5,6,7-tetrahydrobenzothiophen-6-amine hydrochloride] | – | ND (^ <4%) | ND (^ <4%) | ND (^ <4%) | ND (^ <4%) | ND (^ <4%) | ND (^ <4%) | ND (^ <4%) | – | – | – | +++ (≥49%) | 3 mpk | ND (^ <4%) | ND (^ <4%) | ND (^ <4%) | – | – | – |
| CNC1CCc2c(sc(Cl)c2C)C1 (single isomer, unassigned) [Compound 147, 2-chloro-N, 3-dimethyl-4,5,6,7-tetrahydrobenzothiophen-6-amine hydrochloride] | 3 mg/kg | ND (^ <4%) | – | – | – | ND (^ <4%) | ND (^ <4%) | ND (^ <4%) | + (≥4%) | – | – | +++ (≥49%) | – | – | ND (^ <4%) | ND (^ <4%) | – | – | AN (hydrochloride, 3 mg/kg): + (≥4%); AP (hydrochloride, 3 mg/kg): ND (^ <4%); AX (hydrochloride, 3 mg/kg): ND (^ <4%) |
| CNC1CCc2c(sc(Cl)c2C)C1 (single isomer, unassigned) [Compound 148, 2-chloro-N, 3-dimethyl-4,5,6,7-tetrahydrobenzothiophen-6-amine hydrochloride] | – | ND (^ <4%) | – | – | – | ND (^ <4%) | ND (^ <4%) | +++ (≥49%) | ND (^ <4%) | – | – | ND (^ <4%) | 3 mpk | – | ND (^ <4%) | ND (^ <4%) | – | – | AN (hydrochloride, 3 mg/kg): ND (^ <4%); AP (hydrochloride, 3 mg/kg): + (≥4%); AX (hydrochloride, 3 mg/kg): ++ (≥24%) |
| CNC1(C)CCc2c(csc2C)C1 (single isomer, unassigned) [Compound 149, N, 1,5-trimethyl-6,7-dihydro-4H-2-benzothiophen-5-amine hydrochloride] | 3 mg/kg | ND (^ <4%) | ND (^ <4%) | ND (^ <4%) | ND (^ <4%) | ND (^ <4%) | ND (^ <4%) | – | + (≥4%) | ++++ (≥74%) | – | – | – | – | – | ND (^ <4%) | ND (^ <4%) | ND (^ <4%) | – |
| CNC1(C)CCc2c(csc2C)C1 (single isomer, unassigned) [Compound 150, N, 1,5-trimethyl-6,7-dihydro-4H-2-benzothiophen-5-amine hydrochloride] | – | ND (^ <4%) | ND (^ <4%) | ND (^ <4%) | ND (^ <4%) | ND (^ <4%) | ND (^ <4%) | – | +++ (≥49%) | ++ (≥24%) | – | – | 3 mpk | – | – | ND (^ <4%) | ND (^ <4%) | ND (^ <4%) | – |
| CNC1CCc2sc(Cl)cc2C1 (single isomer, unassigned) [Compound 151, 2-chloro-N-methyl-4,5,6,7-tetrahydrobenzothiophen-5-amine hydrochloride] | 3 mg/kg | ND (^ <4%) | ND (^ <4%) | ND (^ <4%) | ND (^ <4%) | ND (^ <4%) | ND (^ <4%) | – | – | – | – | +++ (≥49%) | – | ND (^ <4%) | ND (^ <4%) | ND (^ <4%) | ND (^ <4%) | – | – |
| CNC1CCc2sc(Cl)cc2C1 (single isomer, unassigned) [Compound 152, 2-chloro-N-methyl-4,5,6,7-tetrahydrobenzothiophen-5-amine hydrochloride] | – | ND (^ <4%) | ND (^ <4%) | ND (^ <4%) | ND (^ <4%) | ND (^ <4%) | ND (^ <4%) | – | – | – | – | ++ (≥24%) | 3 mpk | ND (^ <4%) | ND (^ <4%) | ND (^ <4%) | ND (^ <4%) | – | – |
| CNC1CCc2csc(C3CC3)c2C1 (single isomer, unassigned) [Compound 154, 3-cyclopropyl-N-methyl-4,5,6,7-tetrahydro-2-benzothiophen-5-amine hydrochloride] | – | ND (^ <4%) | ND (^ <4%) | ND (^ <4%) | ND (^ <4%) | – | – | ND (^ <4%) | – | – | ND (^ <4%) | – | – | ND (^ <4%) | ND (^ <4%) | – | – | ND (^ <4%) | CE (hydrochloride, 3 mg/kg): ND (^ <4%); MS (hydrochloride, 3 mg/kg): ND (^ <4%); MED (hydrochloride): >1 mpk |
| CNC1CCc2csc(C3CC3)c2C1 (single isomer, unassigned) [Compound 155, 3-cyclopropyl-N-methyl-4,5,6,7-tetrahydro-2-benzothiophen-5-amine hydrochloride] | – | ND (^ <4%) | ND (^ <4%) | ND (^ <4%) | ND (^ <4%) | – | – | + (≥4%) | – | – | ++ (≥24%) | – | – | ND (^ <4%) | ND (^ <4%) | – | – | ND (^ <4%) | CE (hydrochloride, 3 mg/kg): + (≥4%); MS (hydrochloride, 3 mg/kg): + (≥4%); MED (hydrochloride): 0.3 mpk |

Source: patent US20260274814A1, “THIENYL COMPOUNDS FOR THE TREATMENT OF A CENTRAL NERVOUS SYSTEM DISEASE OR DISORDER” (Coreterra Therapeutics, Inc., priority 2023, published 2026)
